Common to all, as to assay: Tyrosine kinase inhibition assay
Format in all cases: biochemical
What all share (conditions): single concentration 1.0 μM, read-out: percent inhibition

One test concerns the target SYK (Homo sapiens, UniProt P43405). In short, it runs like this: (§1)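 Peptide/kinase mixtures and ATP (apparent Km) are combined in 50 mM HEPES pH 7.5 kinase buffer with 10 mM MgCl2, 1 mM EGTA and 0.01% BRIJ-35, compound at 1.0 μM in 1% DMSO. Development reagent is then added and percent inhibition calculated.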
Another test concerns the target T1, DDR2 (Homo sapiens, UniProt Q16832).
T1 sequence (Q16832 22-855): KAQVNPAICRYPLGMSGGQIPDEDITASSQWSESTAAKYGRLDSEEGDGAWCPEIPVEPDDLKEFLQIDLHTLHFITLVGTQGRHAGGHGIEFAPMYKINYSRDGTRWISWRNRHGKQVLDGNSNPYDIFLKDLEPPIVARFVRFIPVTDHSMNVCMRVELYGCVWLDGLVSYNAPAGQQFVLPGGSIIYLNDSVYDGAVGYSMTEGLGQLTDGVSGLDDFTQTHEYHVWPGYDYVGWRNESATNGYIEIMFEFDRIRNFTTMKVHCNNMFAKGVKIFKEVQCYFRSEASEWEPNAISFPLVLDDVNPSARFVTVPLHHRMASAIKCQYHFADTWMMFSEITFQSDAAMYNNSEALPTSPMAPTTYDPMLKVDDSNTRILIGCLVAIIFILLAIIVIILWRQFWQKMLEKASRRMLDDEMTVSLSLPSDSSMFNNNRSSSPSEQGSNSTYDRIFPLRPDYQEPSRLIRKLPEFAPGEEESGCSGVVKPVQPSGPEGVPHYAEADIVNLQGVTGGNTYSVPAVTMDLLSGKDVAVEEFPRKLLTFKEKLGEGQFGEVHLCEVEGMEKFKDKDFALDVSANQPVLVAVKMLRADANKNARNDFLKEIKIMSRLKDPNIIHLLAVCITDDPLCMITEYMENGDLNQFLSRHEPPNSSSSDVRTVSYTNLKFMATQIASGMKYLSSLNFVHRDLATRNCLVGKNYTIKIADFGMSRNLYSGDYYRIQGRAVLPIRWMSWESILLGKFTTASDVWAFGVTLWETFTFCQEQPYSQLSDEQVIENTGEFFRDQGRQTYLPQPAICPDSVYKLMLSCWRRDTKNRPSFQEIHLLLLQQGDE
In outline:
as §1

In the next test the target is LTK (TYK1) (Homo sapiens, UniProt P29376). In short, it runs like this:
as §1

In the next test the target is TNK2 (ACK) (Homo sapiens, UniProt Q07912). In short, it runs like this: as §1
Sequence of TNK2 (ACK) (Q07912 whole entry): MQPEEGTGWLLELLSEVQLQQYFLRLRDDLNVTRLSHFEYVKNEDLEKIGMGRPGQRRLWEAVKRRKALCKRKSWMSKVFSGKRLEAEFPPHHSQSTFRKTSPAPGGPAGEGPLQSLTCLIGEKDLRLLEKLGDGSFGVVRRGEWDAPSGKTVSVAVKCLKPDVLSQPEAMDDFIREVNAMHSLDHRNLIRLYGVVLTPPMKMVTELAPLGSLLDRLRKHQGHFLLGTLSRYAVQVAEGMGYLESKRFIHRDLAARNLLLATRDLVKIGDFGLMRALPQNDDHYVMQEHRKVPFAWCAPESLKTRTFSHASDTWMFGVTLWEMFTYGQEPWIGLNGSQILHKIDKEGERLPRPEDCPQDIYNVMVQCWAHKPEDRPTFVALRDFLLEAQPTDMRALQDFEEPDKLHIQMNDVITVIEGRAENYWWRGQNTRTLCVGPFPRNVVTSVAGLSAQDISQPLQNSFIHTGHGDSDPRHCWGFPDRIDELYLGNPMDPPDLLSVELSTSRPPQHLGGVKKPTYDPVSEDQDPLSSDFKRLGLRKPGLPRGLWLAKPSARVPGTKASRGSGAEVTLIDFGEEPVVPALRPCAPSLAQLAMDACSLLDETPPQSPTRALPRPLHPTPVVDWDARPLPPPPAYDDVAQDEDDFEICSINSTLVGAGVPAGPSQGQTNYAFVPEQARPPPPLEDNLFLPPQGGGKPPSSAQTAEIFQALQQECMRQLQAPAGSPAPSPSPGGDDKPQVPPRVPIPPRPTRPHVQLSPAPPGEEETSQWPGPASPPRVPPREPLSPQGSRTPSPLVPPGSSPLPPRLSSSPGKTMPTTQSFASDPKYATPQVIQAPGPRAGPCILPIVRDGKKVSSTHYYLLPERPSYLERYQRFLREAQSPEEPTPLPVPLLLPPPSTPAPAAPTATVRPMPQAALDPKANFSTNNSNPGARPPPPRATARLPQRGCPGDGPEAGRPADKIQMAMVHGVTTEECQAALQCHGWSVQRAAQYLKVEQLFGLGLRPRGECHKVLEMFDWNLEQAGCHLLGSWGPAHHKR
A further test concerns the target T2, MUSK (Homo sapiens, UniProt O15146).
T2 sequence (O15146 24-869): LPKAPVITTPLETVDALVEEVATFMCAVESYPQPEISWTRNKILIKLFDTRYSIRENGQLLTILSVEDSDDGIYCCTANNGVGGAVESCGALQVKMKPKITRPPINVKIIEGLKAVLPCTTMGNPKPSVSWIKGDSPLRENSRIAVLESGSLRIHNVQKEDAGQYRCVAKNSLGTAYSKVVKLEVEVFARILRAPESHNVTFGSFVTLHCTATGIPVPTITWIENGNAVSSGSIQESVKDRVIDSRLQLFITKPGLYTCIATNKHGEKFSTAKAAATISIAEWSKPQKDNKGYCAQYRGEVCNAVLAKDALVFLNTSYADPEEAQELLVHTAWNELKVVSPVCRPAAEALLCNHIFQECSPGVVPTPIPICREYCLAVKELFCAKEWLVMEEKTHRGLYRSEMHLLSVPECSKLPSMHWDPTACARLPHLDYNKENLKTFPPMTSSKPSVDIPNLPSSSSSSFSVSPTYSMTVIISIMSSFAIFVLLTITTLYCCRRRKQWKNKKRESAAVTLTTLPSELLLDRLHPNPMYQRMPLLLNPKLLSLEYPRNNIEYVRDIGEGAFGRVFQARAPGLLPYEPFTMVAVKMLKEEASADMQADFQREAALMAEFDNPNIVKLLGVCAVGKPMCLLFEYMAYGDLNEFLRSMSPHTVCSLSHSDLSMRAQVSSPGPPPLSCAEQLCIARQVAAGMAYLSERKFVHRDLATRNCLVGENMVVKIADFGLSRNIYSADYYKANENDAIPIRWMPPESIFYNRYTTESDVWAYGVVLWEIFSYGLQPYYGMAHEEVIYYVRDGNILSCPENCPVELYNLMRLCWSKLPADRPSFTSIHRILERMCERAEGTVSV
In short, it runs like this:
as §1

Broadly, the inhibition is the share of the control response that was lost under treatment.

Sequence of LTK (TYK1) (P29376 17-864): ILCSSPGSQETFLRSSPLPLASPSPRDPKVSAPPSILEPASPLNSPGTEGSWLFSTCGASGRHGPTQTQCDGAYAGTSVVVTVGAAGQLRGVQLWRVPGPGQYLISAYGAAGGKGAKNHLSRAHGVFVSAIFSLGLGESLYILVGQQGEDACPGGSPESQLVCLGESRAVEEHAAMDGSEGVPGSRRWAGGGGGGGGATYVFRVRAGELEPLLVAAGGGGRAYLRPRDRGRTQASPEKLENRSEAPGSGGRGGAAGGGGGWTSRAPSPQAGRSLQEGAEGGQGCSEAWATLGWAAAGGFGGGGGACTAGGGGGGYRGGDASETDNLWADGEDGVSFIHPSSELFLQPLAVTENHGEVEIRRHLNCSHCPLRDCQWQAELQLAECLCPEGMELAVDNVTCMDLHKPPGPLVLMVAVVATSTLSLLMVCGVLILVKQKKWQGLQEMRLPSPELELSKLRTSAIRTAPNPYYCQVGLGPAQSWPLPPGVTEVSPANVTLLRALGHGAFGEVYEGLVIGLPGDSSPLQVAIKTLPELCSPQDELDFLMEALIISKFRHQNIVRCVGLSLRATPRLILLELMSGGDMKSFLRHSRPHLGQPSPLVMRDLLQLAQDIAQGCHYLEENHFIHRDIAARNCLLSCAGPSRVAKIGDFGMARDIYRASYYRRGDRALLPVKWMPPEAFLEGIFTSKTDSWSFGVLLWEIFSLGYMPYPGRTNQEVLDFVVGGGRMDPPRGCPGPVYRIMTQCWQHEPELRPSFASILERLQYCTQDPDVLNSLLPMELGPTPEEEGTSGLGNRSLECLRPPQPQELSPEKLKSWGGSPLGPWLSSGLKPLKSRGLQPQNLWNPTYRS

As for `COc1cc2nccc(Oc3ccc(NC(=O)C4(C(=O)Nc5ccc(F)cc5)CC4)cc3)c2cc1OC` [Cabozantinib, reference compound], the inhibition at 1 µM on SYK is 16%; at DDR2, 100%; at LTK (TYK1), 20%; at TNK2 (ACK), 61%; on MUSK it was 92%.

For `COc1cc2nccc(Oc3ccc(NC(=O)C4(C(=O)Nc5ccc(F)cc5)CC4)cc3F)c2cc1Oc1ccc(N)cc1F` [Cbo-23], the inhibition at 1 µM came out at 15% at SYK; 91% on DDR2; 55% on LTK (TYK1); 89% at TNK2 (ACK); 85% at MUSK.

With `COc1cc2nccc(Oc3ccc(NC(=O)C4(NC(=O)c5ccc(F)cc5)CC4)cc3F)c2cc1Oc1ccc(N)cc1F` [Cbo-10], the inhibition at 1 µM on SYK was found to be 24%; on DDR2 it was 51%; on LTK (TYK1), 69%; on TNK2 (ACK), 95%; at MUSK, 68%.

On to `COc1cc2nccc(Oc3ccc(NC(=O)C4(NC(=O)c5ccc(F)cc5)CC4)cc3F)c2cc1OC` [Cbo-02, N-(1-((4-((6,7-diMethoxyquinolin-4-yl)oxy)-3-fluorophenyl)carbamoyl)cyclopropyl)-4-fluorobenzamide], for which the inhibition at 1 µM at SYK is 14%; at DDR2 it was 32%; on LTK (TYK1) it was 50%; on TNK2 (ACK) it was 63%; on MUSK, 31%.

For `COc1cc2nccc(Oc3ccc(NC(=O)C4(NC(=O)c5ccc(F)cc5)CC4)cc3F)c2cc1Oc1c(F)cc(N)cc1F` [Cbo-14], the inhibition at 1 µM at SYK came to 27%; at DDR2, 60%; at LTK (TYK1), 79%; at TNK2 (ACK), 96%; at MUSK it was 76%.
